According to patent US5565433A, “Sulfated β-glycolipid derivatives as cell adhesion inhibitors” (Bristol-Myers Squibb Company, priority 1996, dated 1996):

Experiments:
P-selectin [1] = biological target: T1, P-selectin (Homo sapiens, UniProt P16109); experiment: P-Selectin Adhesion Receptor Binding: cell-free ELISA, inhibition of P-selectin binding to immobilized sulfatides; settings: immobilized sulfatide, pH 8.0
T1 construct: consists of the human lectin domain, the EGF domain, and two complement repeats of the human selectins; made in house
Source text: 1. P-Selectin Adhesion Receptor Binding
P-selectin (GMP140, granule membrane protein-140, PADGEM, or CD62) is a calcium-dependent transmembrane protein found in alpha granules of endothelial cells and platelets. It is an inducible selectin produced on activated endothelium and platelets which recognize alpha(2-3)sialylated and alpha(1-3)fucosylated lactosaminoglycans which include the sequence, Lewis x (Zhou et al., J. Cell. Biol., (1991) 115 (2): 557-564) and sulfatides (3-sulfated galactosyl ceramides, Aruffo, et al., Cell (1991) 67: 35-44). P-selectin may be responsible for the initial adhesion events between endothelium and neutrophils as evidenced by leukocyte rolling induced by P-selectin in flow cells (Lawrence, M., and T. Springer, Cell (1991) 65: 859-873).
Based on the availability of soluble forms of P-selectin prepared as described by Aruffo, A., et al., Cell, 67, 35-44 (1991), a binding ELISA based assay modified from Foxall, et al., J., Cell Biol., 117, 895-902 (1992) was developed to measure inhibitors of P-selectin binding to immobilized sulfatides. Such inhibitors were tested in the assay described below.
0.1 ml of sulfatide (SIGMA) or lysosulfatide (SIGMA) each at 1 μg/ml in MeOH were added to the wells of a 96-well ELISA plate (ProBind, Falcon) and allowed to dry overnight at room temperature. The next day the antigen coated plates were blocked for 1.5 hours at room temperature with 5% BSA (ICN) in buffer containing 20mM Hepes and 0.15 M NaCl, pH 8.0. Wild type P-selectin and mutants thereof were first mixed with HRP-conjugated goat anti-human IgG (Fisher Scientific), serially diluted and then incubated for 30 minutes at 37° C. in buffer containing 20 mM Hepes, 0.15 M NaCl, 1% BSA and 0.8 mM CaCl2, pH 8.0 prior to addition to the BSA blocked plates. Following the 30 minute preincubation, the fusion protein-HRP conjugate immunocomplexes were incubated on the blocked antigen coated plates for 45 minutes at 37° C. in the presence or absence of the test compounds and then washed to remove any unbound proteins. Bound complexes were detected by addition of substrate buffer (95 mM NaOAc.3H2 O, 5 mM citric acid monohydrate, 1.4 mM urea/H2O2) containing 3, 3', 5, 5' Tetramethylbenzidine (SIGMA). Reactions were stopped by the addition of 3N sulfuric acid and the absorbance read on an ELISA reader at dual wavelengths 450 and 630 nm. The efficacy of these compounds was compared to that of sulfatide (positive control) or to lysosulfatide (negative control). The data is obtained as percent inhibition of specific binding [formula] and a plot of dose vs. percent inhibition of Rg binding is generated in which IC50 (μM) is calculated and reported as cell free data in Table 1.

P-selectin [2] = biological target: T1, P-selectin; experiment: HL-60 Cell Binding to P-selectin Rg; type: cell-based; settings: HL-60 cells binding to P-selectin Rg coated wells
Description: 2. HL-60 Cell Binding to P- and E-Selectin RG
Receptor globulin (Rg) Construction
The chimeric P-and E-selectin receptor globulin (Rg) consists of the human lectin domain, the EGF domain, and two complement repeats of the human selectins fused to the hinge, CH1 and CH2 domains of human IgG1. These proteins were prepared as described by Aruffo, et al., Cell (1991) 67: 35-44; Walz, et al., Science (1990) 250, 1132-1135.
Cell binding assay for Rg
The HL-60 cell line, obtained from the American Type Culture Collection, ATCC No. CCL240, was employed to investigate P-selectin Rg binding. Assays were done in 96-well tissue culture dishes. The wells were first coated with 0.5 ug goat anti-human Fc antiserum overnight, and nonspecific binding sites were blocked by incubation of the wells with 1% nonfat dry milk in phosphate buffered saline (PBS containing 0.9 mM CaCl2 and 0.8 mM MgSO4) for 30 minutes. The Rg was then bound to the anti Fc-coated wells by incubating 50 ng in 50 ul of PBS for two hours. Cells, washed twice and resuspended in PBS to remove traces of medium components, were labeled with 10 uM calcein acetoxy methyl ester for 30 minutes at 3×10^7 cells per ml at room temperature. Serum-containing medium (RPMI with 20% fetal calf serum) was added, and the cells washed, followed by resuspension in PBS and a further spin. The labeled cells, resuspended in PBS, were added to twice washed Rg-containing wells at 200,000 per well. Following a 30 minute incubation with slow shaking, the wells were aspirated and washed three times with PBS to remove unbound cells. To certain wells were added known numbers of cells for determination of a standard curve of fluorescent units per cell. The fluorescence on the plate was quantitated using a fluorescent plate reader. Following subtraction of a blank representing the binding of cells to non-Rg containing wells (<5000 cells), the specific binding to P- or E- selectin was determined.
Inhibitors of cell binding
Test compounds were prepared by dissolution to a final concentration of 20 mg/ml in dimethyl sulfoxide (DMSO), diluted in PBS to 2 mg/ml, and briefly sonicated prior to use. The Rg coated wells were preincubated at room temperature for 15 minutes with the inhibitor, and 200,000 cells were added to yield the final indicated inhibitor concentration in 160 ul of PBS. The data is obtained as percent inhibition of specific binding: [formula] and a plot of dose vs. percent inhibition of Rg binding is generated in which IC50 (μM) is calculated and reported in Table 1.

T1 sequence (P16109 with tags, fused parts or gaps limits assumed): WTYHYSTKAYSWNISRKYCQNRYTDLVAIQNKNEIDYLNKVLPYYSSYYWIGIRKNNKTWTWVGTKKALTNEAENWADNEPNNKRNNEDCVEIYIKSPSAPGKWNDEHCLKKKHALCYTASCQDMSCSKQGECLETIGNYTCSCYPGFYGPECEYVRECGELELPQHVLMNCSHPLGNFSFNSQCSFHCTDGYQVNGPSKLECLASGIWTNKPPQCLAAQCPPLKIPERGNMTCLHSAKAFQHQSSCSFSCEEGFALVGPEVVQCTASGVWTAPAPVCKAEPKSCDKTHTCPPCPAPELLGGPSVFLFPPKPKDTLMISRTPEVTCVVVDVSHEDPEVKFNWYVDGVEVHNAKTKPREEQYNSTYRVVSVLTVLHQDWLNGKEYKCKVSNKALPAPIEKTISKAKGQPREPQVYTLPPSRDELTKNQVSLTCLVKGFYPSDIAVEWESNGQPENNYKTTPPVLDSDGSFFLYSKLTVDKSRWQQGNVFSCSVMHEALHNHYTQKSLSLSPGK

Structure (SMILES) | IC50 (P-selectin [1]) [µM] | IC50 (P-selectin [2]) [µM]
CCCCCCCCCCCCC/C=C/[C@@H](O)[C@H](CO[C@@H]1O[C@H](COS(=O)(=O)O)[C@H](OS(=O)(=O)O)[C@H](O)[C@H]1O)NC(=O)CCCCCCCCCCCCCCC [Example 2, (2S,3R,4E)-3-Hydroxy-2-hexadecanoylamino-1-[4,6-di-O-(sodiumoxysulfonyl)-β-D-galactopyranosyloxy]-4-octadecene] | 1.7 | 39
CCCCCCCC/C=C\CCCCCCCCCCCCCC(=O)N[C@@H](CO[C@@H]1O[C@H](COS(=O)(=O)O)[C@H](OC(=O)c2ccccc2)[C@H](OC(=O)c2ccccc2)[C@H]1OS(=O)(=O)O)[C@@H](/C=C/CCCCCCCCCCCCC)OC(=O)c1ccccc1 [Example 7, (2S,3R,4E)-3-Benzoyloxy-1-[3,4-di-O-benzoyl-2,6-di-O-(sodiumoxysulfonyl)-β-D-galactopyranosyloxy]-2-(cis-15-tetracosenoylamino)-4-octadecene] | 1 | 11
